Assay results from ChEMBL document CHEMBL1201862, “PubChem BioAssay data set” (2004).
“And” between values parts separate entries of the source, which are not always exact repeats. Equal entries are not always repeated. The source made the active and inactive calls.

What was measured:
[1] = biological target: Eukaryotic translation initiation factor 4E (Mus musculus, UniProt P63073); assay: eIF4E–eIF4G protein interaction inhibitors, dose response, biochemical, TR-FRET (AID 855); type: functional;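 further: potency for disrupting eIF4E binding to eIF4GI seen as loss of FRET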
[2] = biological target: T1, Hexokinase HKDC1 (Homo sapiens, UniProt Q2TB90); assay: HKDC1 hexokinase inhibitors, dose response, biochemical, W721R variant (AID 504729); type: functional
T1 sequence (Q2TB90 whole entry): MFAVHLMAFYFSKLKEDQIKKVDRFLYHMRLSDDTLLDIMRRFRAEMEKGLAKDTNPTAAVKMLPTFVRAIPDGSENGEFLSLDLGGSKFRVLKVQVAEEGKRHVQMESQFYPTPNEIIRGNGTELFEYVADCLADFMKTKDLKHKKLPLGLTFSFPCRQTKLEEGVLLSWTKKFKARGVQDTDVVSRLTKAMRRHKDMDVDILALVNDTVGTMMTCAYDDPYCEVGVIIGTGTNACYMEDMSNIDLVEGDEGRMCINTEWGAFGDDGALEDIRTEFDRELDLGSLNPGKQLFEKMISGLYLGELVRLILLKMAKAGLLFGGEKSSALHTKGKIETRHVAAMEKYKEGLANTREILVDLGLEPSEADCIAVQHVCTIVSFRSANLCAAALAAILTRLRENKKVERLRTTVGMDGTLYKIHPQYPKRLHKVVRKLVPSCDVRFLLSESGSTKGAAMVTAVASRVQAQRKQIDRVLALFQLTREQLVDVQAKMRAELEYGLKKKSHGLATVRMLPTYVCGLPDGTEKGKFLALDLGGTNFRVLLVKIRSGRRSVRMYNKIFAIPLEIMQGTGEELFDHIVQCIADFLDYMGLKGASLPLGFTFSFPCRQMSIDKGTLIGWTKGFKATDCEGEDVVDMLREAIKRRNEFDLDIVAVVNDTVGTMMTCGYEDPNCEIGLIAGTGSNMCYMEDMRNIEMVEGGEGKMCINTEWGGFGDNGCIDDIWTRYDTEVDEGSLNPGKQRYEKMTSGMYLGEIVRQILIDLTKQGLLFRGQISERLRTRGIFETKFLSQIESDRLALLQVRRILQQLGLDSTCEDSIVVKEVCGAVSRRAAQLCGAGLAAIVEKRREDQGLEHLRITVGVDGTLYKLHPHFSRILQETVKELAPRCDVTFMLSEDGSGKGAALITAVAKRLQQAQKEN

[3] = biological target: T2, Hexokinase-1 (Homo sapiens, UniProt P19367); assay: HK1 enzyme inhibition by HKDC1 hits, SAR follow-up, selectivity assay for HKDC1 inhibitor project, biochemical, set 2, resazurin fluorescence coupled readout (AID 588356); type: functional
T2 sequence (P19367 whole entry): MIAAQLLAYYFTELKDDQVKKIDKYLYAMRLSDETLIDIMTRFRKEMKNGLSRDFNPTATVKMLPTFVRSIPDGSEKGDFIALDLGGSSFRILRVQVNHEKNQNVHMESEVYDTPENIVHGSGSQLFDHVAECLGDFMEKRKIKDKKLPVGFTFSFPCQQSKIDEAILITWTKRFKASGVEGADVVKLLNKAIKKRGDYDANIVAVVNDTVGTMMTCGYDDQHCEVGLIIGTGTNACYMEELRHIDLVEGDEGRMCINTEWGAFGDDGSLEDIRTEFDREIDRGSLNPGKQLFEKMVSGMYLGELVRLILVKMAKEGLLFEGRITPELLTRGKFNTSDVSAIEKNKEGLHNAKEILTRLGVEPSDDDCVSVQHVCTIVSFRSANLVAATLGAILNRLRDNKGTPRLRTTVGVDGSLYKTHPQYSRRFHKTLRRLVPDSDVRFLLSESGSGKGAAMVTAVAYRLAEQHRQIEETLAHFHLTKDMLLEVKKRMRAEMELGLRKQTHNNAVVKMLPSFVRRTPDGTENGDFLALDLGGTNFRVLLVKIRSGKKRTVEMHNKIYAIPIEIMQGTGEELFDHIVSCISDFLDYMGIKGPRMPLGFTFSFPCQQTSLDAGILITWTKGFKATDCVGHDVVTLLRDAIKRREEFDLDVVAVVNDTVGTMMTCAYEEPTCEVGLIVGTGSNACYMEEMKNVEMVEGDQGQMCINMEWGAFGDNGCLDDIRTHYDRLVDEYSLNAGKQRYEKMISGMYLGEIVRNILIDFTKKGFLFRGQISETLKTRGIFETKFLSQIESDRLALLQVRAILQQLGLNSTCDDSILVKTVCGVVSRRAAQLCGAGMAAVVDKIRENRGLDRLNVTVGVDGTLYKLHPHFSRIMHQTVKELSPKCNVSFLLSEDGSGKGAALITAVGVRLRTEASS

[4] = biological target: T1, Hexokinase HKDC1; assay: SAR analysis of small molecule inhibitors of hexokinase domain containing I (HKDC1) - Set 3. [Related pubchem assays (depositor defined):AID493160, AID493190]; type: functional
[5] = biological target: T2, Hexokinase-1; assay: SAR analysis of small molecule inhibitors of hexokinase domain containing I (HKDC1) in the hexokinase 1 selectivity assay. [Related pubchem assays (depositor defined):AID493160, AID493190]; type: functional
[6] = biological target: T1, Hexokinase HKDC1; assay: SAR analysis of small molecule inhibitors of hexokinase domain containing I (HKDC1). [Related pubchem assays (depositor defined):AID493160, AID493190]; type: functional
[7] = biological target: T1, Hexokinase HKDC1; assay: HKDC1 hexokinase inhibitors, SAR follow-up, biochemical, set 2 (AID 588355); type: functional
[8] = biological target: RNA-editing ligase 1, mitochondrial (Trypanosoma brucei brucei, UniProt P86926); assay: TbREL1 ligase inhibitors, dose response, biochemical, fluorescence, Trypanosoma brucei (AID 1117295); type: functional
[9] = biological target: T3, Cytochrome P450 1A2 (Homo sapiens, UniProt P05177);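 further: PubChem cytochrome P450 panel assay, CYP1A2 panel member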
T3 sequence (P05177 whole entry): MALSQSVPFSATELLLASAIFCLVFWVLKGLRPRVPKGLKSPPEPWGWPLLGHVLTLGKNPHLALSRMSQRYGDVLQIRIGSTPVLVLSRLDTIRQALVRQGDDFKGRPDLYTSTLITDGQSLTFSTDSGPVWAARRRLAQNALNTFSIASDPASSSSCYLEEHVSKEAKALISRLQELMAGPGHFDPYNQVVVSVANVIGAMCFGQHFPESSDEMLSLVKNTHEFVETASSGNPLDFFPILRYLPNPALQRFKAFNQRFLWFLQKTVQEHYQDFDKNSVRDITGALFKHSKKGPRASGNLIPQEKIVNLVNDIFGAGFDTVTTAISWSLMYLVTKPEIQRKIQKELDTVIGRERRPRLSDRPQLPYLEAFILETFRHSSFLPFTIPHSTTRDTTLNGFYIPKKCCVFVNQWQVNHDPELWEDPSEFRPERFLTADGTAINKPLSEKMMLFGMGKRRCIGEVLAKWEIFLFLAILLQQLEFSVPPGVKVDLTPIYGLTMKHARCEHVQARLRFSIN

[10] = biological target: Cytochrome P450 2C9 (Homo sapiens, UniProt P11712)
[11] = biological target: Platelet-activating factor acetylhydrolase (Mus musculus, UniProt Q60963); assay: Late stage assay provider results from the probe development effort to identify inhibitors of plasma platelet activating factor acetylhydrolase (pPAFAH): fluorescence-based dose response biochemical gel-based competitive Activity-Based Protein Profiling (ABPP) assay for HTS compounds. [Related pubchem assays (depositor defined):AID463082, AID463092, AID463230, AID588474]; type: cell-free
[12] = tested on: CHO-K1; assay: Counterscreen for antagonists of the orexin 1 receptor (OX1R; HCRTR1): Homogeneous time resolved fluorescence (HTRF)-based cell-based dose response assay to identify antagonists of the parental CHO-K1 cell line. [Related pubchem assays (depositor defined):AID434989, AID435008, AID463079, AID485270, AID492963, AID492964, AID492965, AID493232, AID504699, AID504701]; type: functional; settings: Cricetulus griseus;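 further: potency for inhibition of ATP-stimulated IP1 production as antagonists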
[13] = Counterscreen for antagonists of the orexin 1 receptor (OX1R; HCRTR1): Fluorescence-based cell-based high throughput dose response assay to identify antagonists of the parental CHO cell line. [Related pubchem assays (depositor defined):AID434989, AID435008, AID463079, AID485270, AID492963, AID492964, AID492965, AID493232, AID504699, AID504701]; type: functional
[14] = biological target: T4, Orexin/Hypocretin receptor type 1 (Homo sapiens, UniProt O43613); assay: Homogeneous Time Resolved Fluorescence (HTRF)-based cell-based high throughput dose response assay for antagonists of the orexin 1 receptor (OX1R; HCRTR1). [Related pubchem assays (depositor defined):AID434989, AID435008, AID463079, AID485270, AID492963, AID492964, AID492965, AID493232, AID504717, AID504718]; type: functional
T4 sequence (O43613 whole entry): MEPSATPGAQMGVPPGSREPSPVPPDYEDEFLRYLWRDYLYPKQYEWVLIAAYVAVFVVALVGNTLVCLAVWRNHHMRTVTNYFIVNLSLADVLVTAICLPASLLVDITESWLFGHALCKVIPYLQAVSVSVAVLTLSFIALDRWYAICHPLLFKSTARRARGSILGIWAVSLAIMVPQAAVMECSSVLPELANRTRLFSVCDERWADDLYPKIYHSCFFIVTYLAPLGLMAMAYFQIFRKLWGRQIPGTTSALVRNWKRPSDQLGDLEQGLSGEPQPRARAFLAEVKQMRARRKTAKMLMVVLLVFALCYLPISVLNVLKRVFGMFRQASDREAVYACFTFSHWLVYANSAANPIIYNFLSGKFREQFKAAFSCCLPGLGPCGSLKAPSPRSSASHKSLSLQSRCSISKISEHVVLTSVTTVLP

[15] = biological target: T4, Orexin/Hypocretin receptor type 1; assay: Fluorescence-based cell-based high throughput dose response assay for antagonists of the orexin 1 receptor (OX1R; HCRTR1). [Related pubchem assays (depositor defined):AID434989, AID435008, AID463079, AID485270, AID492963, AID492964, AID492965, AID493232, AID504717, AID504718]; type: functional
[16] = biological target: T5, Orexin receptor type 2 (Homo sapiens, UniProt O43614); assay: Counterscreen assay for antagonists of the orexin 1 receptor (OX1R; HCRTR1): Fluorescence-based cell-based dose response assay for antagonists of the orexin 2 receptor (OX2R; HCRTR2), run by assay provider.; type: functional
[17] = biological target: T5, Orexin receptor type 2; assay: Counterscreen assay for antagonists of the orexin 1 receptor (OX1R; HCRTR1): Homogeneous Time Resolved Fluorescence (HTRF)-based cell-based dose response assay for antagonists of the orexin 2 receptor (OX2R; HCRTR2), run by assay provider.; type: functional
[18] = CAL PDZ domain peptide-binding inhibitors, dose response, biochemical, fluorescence polarization, untagged CAL PDZ, dry powder (AID 602255); type: functional
[19] = biological target: Cystic fibrosis transmembrane conductance regulator/Golgi-associated PDZ and coiled-coil motif-containing protein (Homo sapiens, UniProt P13569+Q9HD26); assay: CAL PDZ domain peptide-binding inhibitors, dose response, biochemical, fluorescence polarization, Cer-tagged CAL PDZ, dry powder (AID 602253); type: functional
[20] = biological target: Eukaryotic elongation factor 2 kinase (Homo sapiens, UniProt O00418); type: functional
[21] = biological target: Casein kinase I isoform delta (Homo sapiens, UniProt P48730); type: functional;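 further: measured as one member (CSNK1D) of a kinome panel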
[22] = biological target: DNA dC->dU-editing enzyme APOBEC-3G (Homo sapiens, UniProt Q9HC16); assay: APOBEC3G deaminase inhibitors, SAR follow-up, biochemical, fluorescence, single-stranded DNA substrate (AID 602136); type: functional; settings: read-out: IC50_Mean
[23] = biological target: DNA dC->dU-editing enzyme APOBEC-3A (Homo sapiens, UniProt P31941); assay: SAR analysis of small molecule inhibitors of APOBEC3A DNA Deaminase via a fluorescence-based single-stranded DNA deaminase assay.; type: functional; settings: read-out: IC50_Mean
[24] = biological target: Serine/threonine-protein kinase pim-1 (Homo sapiens, UniProt P11309); type: functional
[25] = biological target: Mitogen-activated protein kinase kinase kinase kinase 4 (Homo sapiens, UniProt O95819); type: functional
Sequence of Mitogen-activated protein kinase kinase kinase kinase 4 (O95819 whole entry): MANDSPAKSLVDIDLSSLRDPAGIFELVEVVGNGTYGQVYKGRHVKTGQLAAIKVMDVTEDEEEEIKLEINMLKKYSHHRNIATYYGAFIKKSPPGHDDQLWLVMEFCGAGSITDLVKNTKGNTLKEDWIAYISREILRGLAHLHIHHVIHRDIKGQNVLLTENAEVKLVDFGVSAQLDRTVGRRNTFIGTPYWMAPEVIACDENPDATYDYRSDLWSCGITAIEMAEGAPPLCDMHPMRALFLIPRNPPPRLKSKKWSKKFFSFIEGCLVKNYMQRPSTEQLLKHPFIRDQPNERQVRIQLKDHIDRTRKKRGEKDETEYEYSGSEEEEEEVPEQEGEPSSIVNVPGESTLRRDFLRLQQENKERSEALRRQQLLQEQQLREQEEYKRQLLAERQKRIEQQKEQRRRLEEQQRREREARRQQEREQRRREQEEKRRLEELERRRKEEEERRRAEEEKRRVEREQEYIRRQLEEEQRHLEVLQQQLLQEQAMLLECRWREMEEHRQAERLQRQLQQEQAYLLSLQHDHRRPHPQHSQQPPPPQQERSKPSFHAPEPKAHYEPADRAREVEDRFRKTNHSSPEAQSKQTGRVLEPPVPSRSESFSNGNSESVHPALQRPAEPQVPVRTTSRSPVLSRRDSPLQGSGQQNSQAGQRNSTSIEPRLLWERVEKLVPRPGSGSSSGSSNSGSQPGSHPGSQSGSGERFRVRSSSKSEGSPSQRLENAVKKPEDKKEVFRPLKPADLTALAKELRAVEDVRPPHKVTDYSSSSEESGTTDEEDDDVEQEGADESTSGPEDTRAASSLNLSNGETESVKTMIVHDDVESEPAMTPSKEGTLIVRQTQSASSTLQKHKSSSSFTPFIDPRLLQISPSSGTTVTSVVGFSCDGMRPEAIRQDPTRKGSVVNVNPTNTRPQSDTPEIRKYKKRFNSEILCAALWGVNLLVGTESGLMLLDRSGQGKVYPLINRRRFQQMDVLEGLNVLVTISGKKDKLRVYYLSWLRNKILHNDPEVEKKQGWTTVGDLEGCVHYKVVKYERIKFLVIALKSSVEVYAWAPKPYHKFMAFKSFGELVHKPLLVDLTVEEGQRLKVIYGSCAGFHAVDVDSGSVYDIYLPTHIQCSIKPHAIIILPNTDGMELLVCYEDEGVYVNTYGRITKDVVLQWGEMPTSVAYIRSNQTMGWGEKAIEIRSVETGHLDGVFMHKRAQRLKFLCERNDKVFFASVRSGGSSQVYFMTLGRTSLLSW

T5 sequence (O43614 whole entry): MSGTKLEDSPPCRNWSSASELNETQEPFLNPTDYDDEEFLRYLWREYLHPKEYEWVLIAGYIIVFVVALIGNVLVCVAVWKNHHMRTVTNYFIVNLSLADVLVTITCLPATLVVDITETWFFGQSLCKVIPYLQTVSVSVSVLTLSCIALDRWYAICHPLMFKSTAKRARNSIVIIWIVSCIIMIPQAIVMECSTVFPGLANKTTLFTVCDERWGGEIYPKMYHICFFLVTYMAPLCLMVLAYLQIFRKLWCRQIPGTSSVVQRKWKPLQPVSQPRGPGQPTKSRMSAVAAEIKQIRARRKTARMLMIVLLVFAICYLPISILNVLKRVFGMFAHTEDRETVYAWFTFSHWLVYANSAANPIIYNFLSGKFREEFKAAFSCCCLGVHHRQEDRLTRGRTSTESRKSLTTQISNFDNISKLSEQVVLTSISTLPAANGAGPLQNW
Sequence of Cystic fibrosis transmembrane conductance regulator/Golgi-associated PDZ and coiled-coil motif-containing protein (P13569 whole entry, other chains not shown, the tested form may be a part): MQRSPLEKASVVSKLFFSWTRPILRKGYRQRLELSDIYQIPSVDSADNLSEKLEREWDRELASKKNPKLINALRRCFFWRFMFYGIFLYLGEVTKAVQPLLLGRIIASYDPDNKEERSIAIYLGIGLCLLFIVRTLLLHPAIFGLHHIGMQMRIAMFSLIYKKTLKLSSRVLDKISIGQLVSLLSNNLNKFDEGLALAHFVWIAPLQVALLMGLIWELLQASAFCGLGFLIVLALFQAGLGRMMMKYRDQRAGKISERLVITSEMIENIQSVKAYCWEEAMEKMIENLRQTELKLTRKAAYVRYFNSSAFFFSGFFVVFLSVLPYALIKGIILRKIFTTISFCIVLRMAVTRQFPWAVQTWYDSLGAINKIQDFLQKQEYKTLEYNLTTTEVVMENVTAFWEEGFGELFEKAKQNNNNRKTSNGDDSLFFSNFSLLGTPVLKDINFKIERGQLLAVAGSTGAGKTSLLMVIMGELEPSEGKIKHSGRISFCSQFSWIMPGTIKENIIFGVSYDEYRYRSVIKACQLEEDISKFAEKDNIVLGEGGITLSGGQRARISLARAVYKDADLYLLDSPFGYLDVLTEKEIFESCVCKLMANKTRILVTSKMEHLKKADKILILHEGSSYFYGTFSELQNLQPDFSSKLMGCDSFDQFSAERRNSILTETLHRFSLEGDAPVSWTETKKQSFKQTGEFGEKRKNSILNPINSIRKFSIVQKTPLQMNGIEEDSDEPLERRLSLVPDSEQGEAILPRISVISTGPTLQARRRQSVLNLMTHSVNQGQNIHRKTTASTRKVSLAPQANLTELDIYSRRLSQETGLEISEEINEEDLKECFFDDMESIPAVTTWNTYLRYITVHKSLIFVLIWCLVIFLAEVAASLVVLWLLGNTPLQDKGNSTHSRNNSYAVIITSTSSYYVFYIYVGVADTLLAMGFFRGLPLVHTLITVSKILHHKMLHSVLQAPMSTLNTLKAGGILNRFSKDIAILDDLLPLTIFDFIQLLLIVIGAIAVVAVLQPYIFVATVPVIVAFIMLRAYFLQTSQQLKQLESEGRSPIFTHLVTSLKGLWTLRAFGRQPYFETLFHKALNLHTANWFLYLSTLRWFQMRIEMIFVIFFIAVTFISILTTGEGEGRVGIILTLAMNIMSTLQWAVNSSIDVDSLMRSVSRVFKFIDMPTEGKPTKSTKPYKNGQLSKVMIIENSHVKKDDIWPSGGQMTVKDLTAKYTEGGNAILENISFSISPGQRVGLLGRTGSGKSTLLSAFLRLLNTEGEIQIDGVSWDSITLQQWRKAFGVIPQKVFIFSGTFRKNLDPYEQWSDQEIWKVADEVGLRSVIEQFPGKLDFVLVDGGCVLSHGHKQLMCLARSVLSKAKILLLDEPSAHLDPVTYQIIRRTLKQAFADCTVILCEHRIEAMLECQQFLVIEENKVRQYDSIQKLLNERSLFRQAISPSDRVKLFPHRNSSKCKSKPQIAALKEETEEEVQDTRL
Sequence of Eukaryotic translation initiation factor 4E (P63073 whole entry): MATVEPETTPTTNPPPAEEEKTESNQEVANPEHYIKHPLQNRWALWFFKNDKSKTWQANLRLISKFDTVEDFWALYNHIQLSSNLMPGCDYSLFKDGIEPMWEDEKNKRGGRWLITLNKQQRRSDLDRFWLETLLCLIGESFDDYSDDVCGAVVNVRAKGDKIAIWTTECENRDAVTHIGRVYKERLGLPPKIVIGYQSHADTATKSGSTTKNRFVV
Sequence of Eukaryotic elongation factor 2 kinase (O00418 whole entry, canonical isoform): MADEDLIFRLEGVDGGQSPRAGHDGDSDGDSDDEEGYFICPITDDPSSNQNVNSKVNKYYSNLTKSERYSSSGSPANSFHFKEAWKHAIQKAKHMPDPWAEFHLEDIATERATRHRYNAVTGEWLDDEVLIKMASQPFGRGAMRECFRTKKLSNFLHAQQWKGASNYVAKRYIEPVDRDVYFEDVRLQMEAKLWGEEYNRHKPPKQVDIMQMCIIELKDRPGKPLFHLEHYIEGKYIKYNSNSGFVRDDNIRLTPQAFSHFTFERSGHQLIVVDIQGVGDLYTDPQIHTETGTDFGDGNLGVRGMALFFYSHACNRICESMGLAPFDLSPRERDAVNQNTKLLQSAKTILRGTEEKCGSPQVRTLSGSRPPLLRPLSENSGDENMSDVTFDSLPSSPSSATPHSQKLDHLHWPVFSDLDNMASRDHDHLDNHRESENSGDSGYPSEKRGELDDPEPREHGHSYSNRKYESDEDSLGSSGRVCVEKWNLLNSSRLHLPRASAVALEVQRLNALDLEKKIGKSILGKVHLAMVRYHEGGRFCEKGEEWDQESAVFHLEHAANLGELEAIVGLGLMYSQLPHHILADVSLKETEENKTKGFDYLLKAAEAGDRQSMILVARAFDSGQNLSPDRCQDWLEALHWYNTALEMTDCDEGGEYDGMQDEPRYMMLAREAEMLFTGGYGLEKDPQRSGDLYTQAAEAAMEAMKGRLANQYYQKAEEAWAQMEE
Sequence of DNA dC->dU-editing enzyme APOBEC-3G (Q9HC16 whole entry): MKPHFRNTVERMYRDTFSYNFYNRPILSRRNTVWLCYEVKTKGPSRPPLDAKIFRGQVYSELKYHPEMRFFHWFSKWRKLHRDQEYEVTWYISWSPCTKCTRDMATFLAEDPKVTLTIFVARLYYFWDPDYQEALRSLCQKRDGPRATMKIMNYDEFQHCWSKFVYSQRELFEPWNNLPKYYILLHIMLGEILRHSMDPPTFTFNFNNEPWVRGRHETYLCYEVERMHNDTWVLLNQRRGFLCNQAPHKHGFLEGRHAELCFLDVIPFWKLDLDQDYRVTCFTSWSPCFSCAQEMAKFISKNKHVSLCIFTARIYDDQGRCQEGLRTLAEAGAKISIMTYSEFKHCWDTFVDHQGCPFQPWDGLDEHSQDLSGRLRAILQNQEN
Sequence of Serine/threonine-protein kinase pim-1 (P11309 whole entry): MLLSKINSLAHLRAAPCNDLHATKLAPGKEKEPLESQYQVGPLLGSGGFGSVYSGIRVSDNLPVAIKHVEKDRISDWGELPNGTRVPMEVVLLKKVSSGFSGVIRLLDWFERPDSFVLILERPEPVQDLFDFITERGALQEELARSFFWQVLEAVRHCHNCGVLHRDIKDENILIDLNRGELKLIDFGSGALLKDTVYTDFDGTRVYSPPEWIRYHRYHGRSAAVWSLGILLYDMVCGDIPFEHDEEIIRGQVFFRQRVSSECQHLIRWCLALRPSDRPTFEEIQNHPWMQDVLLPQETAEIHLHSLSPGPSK
Sequence of DNA dC->dU-editing enzyme APOBEC-3A (P31941 whole entry): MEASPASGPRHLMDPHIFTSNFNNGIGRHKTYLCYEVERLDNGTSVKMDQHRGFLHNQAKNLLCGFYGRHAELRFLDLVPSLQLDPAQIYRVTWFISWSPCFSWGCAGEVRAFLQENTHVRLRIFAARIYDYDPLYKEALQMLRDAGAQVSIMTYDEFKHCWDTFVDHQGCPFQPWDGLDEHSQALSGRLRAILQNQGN

COc1cc2c(cc1OC)-c1cc(NCc3ccccn3)nc(=O)n1CC2
IC50 [1]: 9.21 µM (active)
IC50 [2]: 8.47 µM (active)
IC50 [3]: > 80 µM (inactive)
IC50 [4]: > 80 µM (inactive) and 12.1 µM (active)
IC50 [5]: > 80 µM (inactive)
IC50 [6]: 12.4 µM (active)
IC50 [7]: > 80 µM (inactive) and 11.7 µM (active)
IC50 [8]: 14.7 µM (inactive)
AC50 [9]: 35.5 µM (inconclusive)
AC50 [10]: 7.94 µM (inconclusive)

O=C(Oc1ccc(-c2ccccc2)cc1)N1CCOCC1
IC50 [11]: 0.469 µM (active)

Cc1cccc(OCCSc2nc3ccccc3n2CCC(=O)O)c1
IC50 [12]: > 66.2 µM (inactive)
IC50 [13]: > 49.8 µM (inactive)
IC50 [14]: 1.57 µM (active)
IC50 [15]: 19.6 µM (inactive)
IC50 [16]: 88.2 µM (inactive)
IC50 [17]: > 50 µM (inactive)

CCc1ccc(S(=O)(=O)/N=C2\C=C(SC3=NCN=N3)C(=O)c3ccccc32)cc1
AC50 [18]: 44.5 µM (active)
AC50 [19]: 41.5 µM (active)

CNC1CC2OC(C)(C1OC)n1c3ccccc3c3c4c(c5c6ccccc6n2c5c31)C(=O)NC4 (stereo not given)
Ki [20]: > 1 µM (inactive)
Ki [21]: > 2.51 µM (inactive)

Cc1nnc(NC(=O)C2(c3ccc(F)cc3)CCC2)s1
IC50 [22]: > 99 µM (inactive)
IC50 [23]: > 99 µM (inactive)

Clc1ccc(OCC2CN(Cc3c[nH]c4ncccc34)CCO2)cc1 (stereo not given)
Ki [24]: 2 µM (active)
Ki [25]: 1.26 µM (active)
